Data on nine compounds can be found in patent US20180312539A1, “METHODS FOR PREPARING HIGH THROUGHPUT PEPTIDOMIMETICS, ORALLY BIOAVAILABLE DRUGS AND COMPOSITIONS CONTAINING SAME” (University of Southern California, priority 2011, published 2018).

Details of series [1]: species or system C57BL6 mice. The following applies: mouse, in vivo, 10 mg/kg. As to the method: The following peptides were synthesized for oral administration: […](FAM) (SEQ ID NO: 14), […](FAM)DK(Palmitoleic acid) (SEQ ID NO: 15), and […](FAM) (SEQ ID NO: 16), wherein FAM is a lysine derivative containing fluorescein. All peptides were cyclized from the side chain to lysine to the N-terminus as previously described. Anesthetized C57BL6 mice had peptide administered at a dose of 10 mg/kg by oral gavage. After administration, mice were removed from isoflurane. At various time points, blood samples were taken by orbital bleeding as previously described. Peaks were normalized to a 15 minute time point from mice that had peptide administered by IV injection.
The following peptides were synthesized for oral administration: […](FAM) (SEQ ID NO: 14), […](FAM) (SEQ ID NO: 16), […](FAM)DK(biotin) (SEQ ID NO: 38), and […](FAM)DK(Palmitoleic acid) (SEQ ID NO: 15). All peptides were cyclized from the side chain to lysine to the N-terminus as previously described in Millward, S. W. et al. (2007) ACS Chem. Biol. 2:625. Anesthetized C57BL6 mice had peptide administered at a dose of 10 mgs/Kg by oral gavage. After administration, mice were removed from isoflurane. At various time points, blood samples were taken by orbital bleeding as previously described. Peaks were normalized to a 20 minute time point from mice that had peptide administered by IV injection. Area under the curve was analyzed by Graphpad 5.0.
In addition to accessing intracellular targets in cell culture, deriving a simple modification that would facilitate oral bioavailability of peptidic ligands would be greatly beneficial for therapeutic development. Intestinal absorption of both fatty acids and biotin is nearly 100% efficient. Zempleni, J. and Mock, D. M. (1999) The American Journal of Clinical Nutrition 69:504. […] Applicants synthesized a protease resistant peptide with the sequence […]-mod (designated SUPR peptide) (SEQ ID NO: 50), where A is N-methyl alanine, the peptide is cyclized from lysine to the N-terminus, and K(mod) is lysine with a modified sidechain including either biotin or palmitoleic acid. Palmitoleic acid is a monounsaturated fatty acid chosen for its ability to bind human serum albumin, and its low melting point allowing for more favorable solubility of conjugated peptides as compared to […] fatty acid conjugates. This peptide was administered to mice at a dose of 10 mg/kg by oral gavage. At various time points, blood was taken from the mice by orbital bleeding. After processing, fluorescence was quantified and compared to the maximum signal obtained by IV injection of peptide at the same dose.

For series [2] the following is noted: mouse, iv.
Description: (§1) 200 μL of peptide was administered by IV injection into the tail vein of C57BL6 mice at a dose of 10 mg/kg. 50 μL blood samples were taken at various time points by orbital bleeding using heparin coated capillary tubes and isoflurane for anesthesia. Samples are diluted to 600 μLin TE buffer (pH=8.0) then filtered by centrifugation through a 3000 MWCO filter. The flowthrough was analyzed on a Shimadzu RF-5301 PC fluorometer. Time points were integrated and analyzed using Prism 5.0 software.
(§2) To that end mice were administered peptide conjugated to fluorescein by IV injection into the tail vein. Blood samples were taken by orbital bleeding. Blood peptide concentration was determined by comparing fluorescence to a 15 minute time point.
The conditions of series [3]: mouse, in vivo, iv, 10 mg/kg.
Description: as §1, §2
Series [4] concerns SKBR-3 cells. The class given is cell-based, human. As to the method:
Proliferation was measured by standard BrdU cell proliferation assay (Calbiochem). Cell lines were plated in 96-well plates (20,000 cells/well) in D-10 media with indicated amount of peptide with 2% DMSO, and incubated overnight. The BrdU compound was given to the cells for 2 hrs. Following the manufacturer's protocol, samples were analyzed by UV absorbance measurements at 450 nm. Peptide signal was normalized to cells incubated with 2% DMSO but no peptide. IC50 data was generated by fitting the data to a drug response equation (Log(drug) vs. Response, GraphPad Prism 5.0).
The peptides were then screened for function using a standard in vitro assays used to test efficacy of Her-2 targeting molecules. The assay involved analyzing a molecule's ability to inhibit proliferation in cell culture. A widely used kit is the BrdU cell proliferation assay. In this assay, cells are incubated with the molecule of interest before having their media supplemented with a bromodeoxyuridine. Bromodeoxyuridine is incorporated into the DNA of proliferating cells. DNA with this modified base is recognized with an antibody, and quantitated by ELISA. Applicants tested the peptides and compared them with their parental molecules.

For series [5] the following is noted: cited from earlier work; for oral bioavailability: as known in the field.
Series [6] is described as follows: b. The text has this:
Table printed on a drawing sheet, FIGURES 5A and 5B
FIG. 5A is Vmax for chymotrypsin digestion of cycGIBP(•), linSUPR(♦), and cycSUPR(▪). A close up of linSUPR and cycSUPR is embedded in the Figure to show the data in more detail. FIG. 5B is a Table showing values for Km and Vmax as derived by processing the data through Graphpad Prism 5.0. Both Km and Vmax are highly optimized for protease resistance in cycSUPR peptide when compared to cycGIBP.
First reader's note: Km and Vmax are kinetic parameters of chymotrypsin digestion of the peptides (protease stability); the sheet prints no unit for Km.

A short description of series [7]: Human serum digests. The series is classed as in vitro ADME. The following applies: reconstituted human serum, 37° C. As to the method: Delipidated/lyophilized human serum was purchased from Thermo Scientific and reconstituted as per manufacturer's instructions. 250 nmoles of peptide in 50 μLs of sodium phosphate buffer (pH=8.0) with 10% DMSO was added to 1 mL of reconstituted serum and incubated at 37° C. 100 μL aliquots were taken at various time points and quenched in 300 μLs of acetonitrile. Samples were spun down and decanted to remove precipitate followed by dilution in water to 1.5 mLs. Samples were then analyzed by HPLC as described in the protease resistance experiment.
Delipidated/lyophilized human serum was purchased from Thermo Scientific and reconstituted as per manufacturer's instructions. 250 nmoles of peptide in 50 μL of sodium phosphate buffer (pH=8.0) with 10% DMSO was added to 1 mL of reconstituted serum and incubated at 37° C. 100 μL aliquots were taken at various time points and quenched in 300 μL of acetonitrile. Samples were spun down and decanted to remove precipitate followed by dilution in water to 1.5 mLs.
The human serum and human microsome stability of the Gαi1 binding SUPR peptide ([…] (SEQ ID NO: 7)) were compared to the peptides ability to bind to Her-2. Beginning with the human serum analysis, peptides were digested with 95% human serum at 37° C. Analysis was performed by HPLC. […] Therefore, intact peptide is only completely unmodified peptide. Digestions of SUPR, HMP, and PMP are show have lives very similar to SUPR. Digestion of PMP2 is in progress. Without being bound by theory, Applicants theorize that the fitting for HMP may have produced an artificially low half-life.

Series [8] has as its system blood sugar. The series is described as follows: Blood glucose response to insulin. To be noted: oral gavage, 7 nmol/kg. The class given is in vivo, C57BL6 mice. As to the method:
Experimental procedure followed previously published protocols with slight modification, see e.g., (McKern, N. M., et al. (2006) Nature 443:218; Schïffer, L., et al (2003) PNAS 100:4435). Briefly, C57BL6 mice (4 in each group) fasted overnight and were anesthetized using isoflurane prior to taking blood samples by orbital bleeding. Mice were dosed with insulin or biotinylated insulin at a concentration of 3.5 nmol/kg by IV injection into the tail vein. […] In all cases, insulin was in 150 μL of 50 mM sodium phosphate buffer (pH=8.0). Blood was analyzed on a standard Clarity Plus blood glucose meter (VWR). Readings were normalized to a T=0 blood sugar measurement, and analyzed on Graphpad 5.0.
Reacting human insulin with biotin-NHS produced three distinct products that can be separated by HPLC. […] Calceti, P. et al. (2004) European Journal of Pharmaceutical Sciences 22:315; and Tuesca, A., et al. (2009) Pharmaceutical Research 26:727.
Biotinylated insulin and insulin were fed to mice by oral gavage. […] The longer duration of response is likely due to the kinetics of absorption by the intestinal mucosa.

Like-named read-outs stand apart in the source and are kept apart here. *1 amine or outer side, *2 acyl side, *3 side chain or, on linkers, in order; H or OH if unused. Where a SMILES comes first, the peptide text is derived from it. Bridges are numbered along the chain shown (N, C = ends). [ ]: non-standard residue; d: D form. The star is where a group is joined. 5FAM = O=C1OC2(c3ccc(O)cc3Oc3cc(O)ccc32)c2ccc(C(=O)*)cc21; Palmitoleoyl = CCCCCC/C=C\CCCCCCCC(=O)*; Glutaryl = O=C(CCCC(=O)[*:2])[*:1]; NMeNva = CCC[C@H](NC)C(=O)O; NMeA = CN[C@@H](C)C(=O)O

For `CCCCCC/C=C\CCCCCCCC(=O)NCCCC[C@@H](NC(=O)[C@H](CCCCNC(=O)c1ccc2c(c1)C(=O)OC21c2ccc(O)cc2Oc2cc(O)ccc21)NC(=O)[C@@H]1CCCCNC(=O)CCCC(=O)N[C@@H](CCSC)C(=O)N[C@@H](Cc2ccccc2)C(=O)N[C@@H](Cc2ccc(O)cc2)C(=O)N(C)[C@@H](C)C(=O)N[C@@H](Cc2ccc(O)cc2)C(=O)N[C@@H](CCC(=O)O)C(=O)N[C@@H](Cc2ccc(O)cc2)C(=O)N(C)[C@@H](C)C(=O)N[C@@H](CCC(N)=O)C(=O)N[C@@H](Cc2c[nH]c3ccccc23)C(=O)N[C@@H](CO)C(=O)N1)C(=O)O` [FA-cycSUPR] (MFY[NMeA]YEY[NMeA]QWSKK(5FAM)[dK](Palmitoleoyl)-OH; linker N-12 via Glutaryl), in series [1], the bioavailability turned out to be 9.8%. The oral uptake efficiency in series [1] (po) is reported as 9.4%. The “fold increase in in vivo half-life over cycGIBP” value in series [2] is on record as 354 fold. In series [3], this compound gave a half-life of 1100 min. On to `CCC[C@H]1C(=O)N(C)[C@@H](CCC)C(=O)N[C@@H](CC(C)C)C(=O)N[C@@H](Cc2ccc(O)cc2)C(=O)N[C@@H](CC(=O)O)C(=O)N[C@@H](CC(=O)O)C(=O)N[C@H](C(N)=O)CCCCNC(=O)CCCC(=O)N[C@@H](CCSC)C(=O)N[C@@H](C(C)C)C(=O)N[C@@H](CS)C(=O)N1C` [Peptide D] (MVC[NMeNva][NMeNva]LYDDK-NH2; linker N-10 via Glutaryl (inferred); C-terminus assumed), for which the “fold improvement with respect to parental molecule” value in series [4] (EC50/IC50 ratio, peptide 1 vs HRAP, peptide D vs ANHP) is around 110 fold. Moreover, in series [4] (concentrations significantly above the EC50), the “proliferation relative to untreated cells (maximal effect)” value turned out to be 56%. With `O=C(O)CCCC[C@@H]1SC[C@@H]2NC(=O)N[C@@H]21` [biotin], the intestinal absorption efficiency in series [5] (Zempleni and Mock (1999)) was around 100%. Besides, the oral bioavailability in series [5] is reported as around 100%. In series [3], `CC[C@H](C)[C@@H]1NC(=O)[C@H](CCSC)NC(=O)CCCC(=O)NCCCC[C@@H](C(N)=O)NC(=O)[C@H]([C@@H](C)O)NC(=O)CNC(=O)[C@H](C)NC(=O)[C@H](C(C)C)NC(=O)[C@H](Cc2ccccc2)NC(=O)[C@H](CCC(=O)O)NC(=O)[C@H](Cc2ccc(O)cc2)NC(=O)[C@H](Cc2c[nH]c3ccccc23)NC(=O)[C@H]([C@@H](C)O)NC1=O` [cycGIBP, reference compound] (MITWYEFVAGTK-NH2; linker N-12 via Glutaryl) had a half-life of 3.1 min. As to `CC[C@H](C)[C@@H]1NC(=O)[C@H](CCSC)NC(=O)CCCC(=O)NCCCC[C@@H](C(N)=O)NC(=O)[C@H]([C@@H](C)O)NC(=O)CNC(=O)[C@H](C)NC(=O)[C@H](C(C)C)NC(=O)[C@H](Cc2ccccc2)NC(=O)[C@H](CCC(=O)O)NC(=O)[C@H](Cc2ccc(O)cc2)NC(=O)[C@H](Cc2c[nH]c3ccccc23)NC(=O)[C@H]([C@@H](C)O)NC1=O` [cycGIBP] (MITWYEFVAGTK-NH2; linker N-12 via Glutaryl), the “Vmax” value in series [6] came to 37 nmol/s. In series [7], `CSCC[C@H](N)C(=O)N[C@@H](Cc1ccccc1)C(=O)N[C@@H](Cc1ccc(O)cc1)C(=O)N(C)[C@@H](C)C(=O)N[C@@H](Cc1ccc(O)cc1)C(=O)N[C@@H](CCC(=O)O)C(=O)N[C@@H](Cc1ccc(O)cc1)C(=O)N(C)[C@@H](C)C(=O)N[C@@H](CCC(N)=O)C(=O)N[C@@H](Cc1c[nH]c2ccccc12)C(=O)N[C@@H](CO)C(=O)N[C@@H](CCCCN)C(N)=O` [linSUPR] had a half-life of 16.2 min. With `CCCCCC/C=C\CCCCCCCC(=O)O` [palmitoleic acid], the oral bioavailability in series [5] is on record as around 100%. Turning to “biotinylated insulin: human insulin singly biotinylated on the N-terminus of the B-chain”, the “effect on blood sugar” value in series [8] is recorded as “produced a typical insulin response”.

As to “insulin: unmodified human insulin [reference compound]”, in series [8], the “effect on blood sugar” value is “no effect on blood sugar”.

What is called bioavailability is the share of a dose that reaches the circulation, judged against a reference dose that is usually intravenous. A low value points to little systemic uptake. One may read the half-life as the time in which the quantity being followed falls by half. Low values mean fast loss, high ones slow loss. A word on the Vmax: it is the rate approached at saturating substrate.
